In patent publication US11154515B2, “Pharmaceutical compositions comprising cannabidiol and beta-caryophyllene and methods for their use” (priority 2017, dated 2021):

Legend:
[1] = tested on: OXA-induced ear edema, ACD mouse model; assay: Oxazolone-induced allergic contact dermatitis model, ear edema; format: in vivo
Method: Prednisolone was solved in 1:1 of DMSO/saline and was administered topically (15-15 μL to the inner and outer surface of the ears). All other test compounds were solved in 96% ethanol. All solutions of all the concentrations were prepared freshly on the first day of every experiment and were stored at 4° C., then shaken properly before the treatments.
Anesthesia was induced by ketamine (Richter Gedeon, Budapest, Hungary) (100 mg/kg i.p., repeated as required) with xylazine (Lavet Ltd., Budapest, Hungary) (5 mg/kg i.m.). Animals were sensitized on two consecutive days by painting 2% oxazolone (50-50 μL, Merck KGaA) on the shaved abdomen. On the 6th day the right ears were smeared with 2% oxazolone (OXA) dissolved in 96% ethanol: 15-15 μL solution was applied on each of the inner and outer surfaces. Control ears were treated with 96% ethanol in the same way. Drug-treated groups were treated with 15-15 μL of drug solution smeared to the inner and outer side of the ears every 4 hrs of the experiment after oxazolone treatment. A schematic of the experimental protocol is provided in FIG. 24 and the experimental groups are defined below. • (a) Group 1: Ethanol-treated Controls: left ear: 96% ethanol, right ear: 2% oxazolone • (b) Group 2: 1 μM CBD • (c) Group 3: 10 μM CBD • (d) Group 4: 1 μM HU101 • (e) Group 5: 10 μMHU101
Ear thickness was measured with an engineer's micrometer, with 0.1 mm accuracy, before challenge with test agents and after the challenge at different time points. Data are expressed as % increase of ear thickness compared to the initial values.
Results are expressed as mean±SEM. Comparisons between different treatment groups were performed using two-way ANOVA followed by Sidak's post hoc test for skin thickness and one-way ANOVA followed by Bonferroni's post hoc test for MPO and vascular leakage. * p<0.05 was considered to be significant.

[2] = tested on: pro-inflammatory cytokine expression (IL-1α, IL-1β, IL-6, IL-8, TNFα) in HaCaT keratinocytes; assay: Inflammatory epidermal keratinocyte models (SDS, Nickel, Carvacrol, SLIGRL, UVB, Poly p(I:C), SEB/TSLP), cytokine RT-qPCR; format: cell-based, human; conditions: seven keratinocyte inflammation models

Compound	efficacy relative to the efficacy of prednisolone ([1]; 1 μM topical, depending on the time-point)	Effect in ACD mouse model, significance of ear edema difference ([1]; OXA + CBD 10 μM vs. OXA + HUF101 1 μM, 24 h)	Effect in ACD mouse model, significance of ear edema difference ([1]; OXA + CBD 10 μM vs. OXA + HUF101 1 μM, 48 h)	Effect in ACD mouse model, significance of ear edema difference ([1]; OXA + CBD 10 μM vs. OXA + HUF101 1 μM, 56 h)	Effect in ACD mouse model, significance of ear edema difference ([1]; OXA + CBD 10 μM vs. OXA + HUF101 10 μM, 48 h)	Effect in ACD mouse model, significance of ear edema difference ([1]; OXA + CBD 10 μM vs. OXA + HUF101 10 μM, 56 h)	Effect in ACD mouse model, significance of ear edema difference ([1]; OXA vs. OXA + HUF101 1 μM, 24 h)	Effect in ACD mouse model, significance of ear edema difference ([1]; OXA vs. OXA + HUF101 1 μM, 48 h)	Effect in ACD mouse model, significance of ear edema difference ([1]; OXA vs. OXA + HUF101 1 μM, 56 h)	Effect in ACD mouse model, significance of ear edema difference ([1]; OXA vs. OXA + HUF101 10 μM, 24 h)	Effect in ACD mouse model, significance of ear edema difference ([1]; OXA vs. OXA + HUF101 10 μM, 48 h)	Effect in ACD mouse model, significance of ear edema difference ([1]; OXA vs. OXA + HUF101 10 μM, 56 h)	anti-inflammatory actions on OXA-induced edema ([1]; both doses (1 μM and 10 μM), topical, all time-points)	effects compared with 1 μM or 10 μM CBD ([1]; both doses, statistically significant compared to 10 μM CBD)	efficacy of 1 μM compared with 10 μM ([1]; topical)	rank order of efficacy among the F-CBDs [2]	reduction in OXA-induced edema formation ([1]; positive control, topical)
C=C(C)[C@@H]1CCC(C)=C[C@H]1c1c(O)cc(CCCCC)c(F)c1O [HUF101]	40-60%	** (** p ≤ 0.01)	*** (*** p ≤ 0.001)	*** (*** p ≤ 0.001)	** (** p ≤ 0.01)	*** (*** p ≤ 0.001)	*** (*** p ≤ 0.001)	*** (*** p ≤ 0.001)	*** (*** p ≤ 0.001)	*** (*** p ≤ 0.001)	*** (*** p ≤ 0.001)	* (* p ≤ 0.05)	statistically significant anti-inflammatory actions at all time-points	more robust effects	somewhat higher	HUF103>HU559a>HUF101	
C[C@]12C=CC(=O)C=C1CC[C@@H]1[C@@H]2[C@@H](O)C[C@@]2(C)[C@H]1CC[C@]2(O)C(=O)CO [Prednisolone, reference compound]																	most robust reduction
